Results reported in patent US20020192201A1, “Crohn's disease treatment methods” (priority 1998, published 2002).
Where two headings read alike, the source gives them in different places.

What was measured:
[1] = test system: M. para. isolated from resected tissue of CD patients; assay: in vitro test of seven antituberculosis drugs against M. para. using the Bactec system; format: cell-based, Mycobacterium paratuberculosis; conditions: for MIC50 (50% M. para. cells inhibited or killed) / MIC99.9 (99.9% M. para. cells inhibited or killed): M. para. from resected tissue of CD patients
[2] = test system: MAP-positive and MAP-negative Crohn's disease patients (ELISA); assay: comparison of age-matched MAP-positive and MAP-negative patients at 1 year (CDAI); format: in vivo, human
Text: Another study was undertaken to compare age-matched MAP-positive and -negative patients utilizing ELISA analysis forserum antibodies to MAP. 10 MAP-positive and 10 MAP-negative patients were compared at 1 year, utilizing the CDAI score as a primary endpoint. The elimination of corticosteroids and the need for immunotherapy were considered secondary endpoints. […] Steroids were eliminated in 8 of 10 patients, with 2 patients requiring low-dose steroids. In the MAP-negative group at 1 year, 6 of 10 patients were in complete remission, with an entry CDAI score of 308 and an exit score of 179. Of the responsive patients, 3 of 6 required additional immunotherapy, and 3 remained on antibiotics alone.

| Compound | Status (resistant/sensitive) [1] | MIC50 (50% M. para. cells inhibited or killed) ([1]; Bactec system) | MIC99.9 (99.9% M. para. cells inhibited or killed) ([1]; Bactec system) | Status (resistant/sensitive) ([1]; Bactec system) | outcome in patients unresponsive to antibiotics [2] |
| --- | --- | --- | --- | --- | --- |
| CC[C@H]1OC(=O)[C@H](C)[C@@H](O[C@H]2C[C@@](C)(OC)[C@@H](O)[C@H](C)O2)[C@H](C)[C@@H](O[C@@H]2O[C@H](C)C[C@H](N(C)C)[C@H]2O)[C@](C)(OC)C[C@@H](C)C(=O)[C@H](C)[C@@H](O)[C@]1(C)O [CLR, clarithromycin] | S | <0.25 µg/mL | <1.25 µg/mL |  |  |
| CC[C@@H](CO)NCCN[C@@H](CC)CO [EMB, ethambutol] |  | <0.5 µg/mL | <3.0 µg/mL | S |  |
| NNC(=O)c1ccncc1 [INH, isoniazid] |  | >20 µg/mL | >20 µg/mL | R |  |
| NC[C@H]1O[C@H](O[C@H]2[C@H](O)[C@@H](O[C@H]3O[C@H](CO)[C@@H](O)[C@H](N)[C@H]3O)[C@H](N)C[C@@H]2N)[C@H](O)[C@@H](O)[C@@H]1O [KM, kanamycin] |  | <1.3 µg/mL | <3.0 µg/mL | R |  |
| NC(=O)c1cnccn1 [PZA, pyrazinamide] |  | >20 µg/mL | >20 µg/mL | R |  |
| CO[C@H]1/C=C/O[C@@]2(C)Oc3c(C)c(O)c4c(O)c(c(/C=N/N5CCN(C)CC5)c(O)c4c3C2=O)NC(=O)/C(C)=C\C=C\[C@H](C)[C@H](O)[C@@H](C)[C@@H](O)[C@@H](C)[C@H](OC(C)=O)[C@@H]1C [RIF, Rifampicin] |  | >1.0 µg/mL | >2.6 µg/mL | R |  |
| [H]/N=C(/N)N[C@H]1[C@H](O)[C@@H](O)[C@H](O[C@@H]2O[C@@H](C)[C@](O)(C=O)[C@H]2O[C@@H]2O[C@@H](CO)[C@H](O)[C@@H](O)[C@@H]2NC)[C@@H](N/C(N)=N\[H])[C@@H]1O [ST, streptomycin] |  | >0.4 µg/mL | >3.0 µg/mL | R |  |
| infliximab |  |  |  |  | induction of remission in all patients |
